Source: PMC4474554 (PLoS ONE, 2015)
“And” between values parts separate entries of the source, which are not always exact repeats. Equal values may be shown once. Read-outs that look alike come from different tables or passages of the source.

Experiments:
HCC827 = type: cell-based
Procedure: (§1) Drug sensitivity was determined by a modified MTS assay with CellTiter 96 AQueous One Solution Reagent (Promega, Madison, WI). Cells were generally seeded on 96-well plates at a density that would yield 80% confluence by the completion of the experiment, varying by each cell line from 3000 to 4000 per well. […] After that, MTS dye was added to each well. The cultures were incubated for another 1 hour at 37°C in a humidified atmosphere with 5% CO2. Optical densities of samples were measured at 490 nm using Immuno Mini NJ-2300 (Nalge Nunc International KK, Rochester, NY). Mean optical density at each drug concentration was calculated after discarding the highest and lowest values. […] IC50 values were expressed as mean and standard deviations. The assays were repeated until the standard deviation became less than the mean.

[1] = test system: HEK-293T with mutant EGFR (L858R); type: cell-based
Procedure: as §1

phospho-IGF-IR = assay: Western blotting, IGF-IR phosphorylation after serum-starvation; type: cell-based; conditions: PC-9, RPC-9, NCI-H1299, NCI-H1819; regardless of IGF-I ligand stimulation; TAE226 two hours
Procedure: Next, they were washed out with cold PBS and lysed in 1 × cell lysis buffer [20 mM Tris-HCl (pH 7.5), 150 mM NaCl, 1 mM Na2EDTA, 1 mM EGTA, 1% Triton, 2.5 mM sodium pyrophosphate, 1 mM beta-glycerophosphate, 1 mM Na3VO4, 1 μg/ml leupeptin] (Cell signaling Technology) supplemented with Complete, Mini (Roche, Basel, Switzerland) to extract protein. After the protein concentration was measured, equal amounts of total protein (30 μg) were separated by SDS-PAGE and transferred to PVDF membranes. The proteins on membranes were incubated overnight at 4°C with the primary antibodies. The following secondary antibodies were used: goat antirabbit or antimouse IgG-conjugated horseradish peroxidase (HRP) (Santa Cruz Biotechnology, Santa Cruz, CA). To detect specific signals, the membranes were incubated by ECL plus Western Blotting Detection Reagents (Amersham Biosciences UK Limited, Buckinghamshire, UK).

Insulin-R = test system: Insulin-R; set-up: method as in earlier work; conditions: updated data; cited from earlier work
HER2 = conditions: updated data; cited from earlier work
Flt-4 = test system: Flt-4; set-up: method as in earlier work; conditions: updated data; cited from earlier work
FGFR-3 (K650E) = test system: FGFR-3 (K650E); set-up: method as in earlier work; conditions: updated data; cited from earlier work
c-Abl = test system: c-Abl; set-up: method as in earlier work; conditions: updated data; cited from earlier work
PDGFR = test system: PDGFR; set-up: method as in earlier work; conditions: updated data; cited from earlier work
Ret (M918T) = test system: Ret (M918T); set-up: method as in earlier work; conditions: updated data; cited from earlier work
JAK-2 = test system: JAK-2; set-up: method as in earlier work; conditions: updated data; cited from earlier work
BRAF (V600E) = test system: BRAF (V600E); set-up: method as in earlier work; conditions: updated data; cited from earlier work
PDK1 = test system: PDK1; set-up: method as in earlier work; conditions: updated data; cited from earlier work
PKA = test system: PKA; set-up: method as in earlier work; conditions: updated data; cited from earlier work
PKB/AKT = test system: PKB/AKT; set-up: method as in earlier work; conditions: updated data; cited from earlier work
PC-9 = assay: MTS assay, PC-9
A549 = assay: MTS assay, A549
SK-BR-3 = assay: MTS assay, SK-BR-3
NCI-H3255 = assay: MTS assay, NCI-H3255
NCI-H1975 = assay: MTS assay, NCI-H1975
NCI-H2228 = assay: MTS assay, NCI-H2228
NCI-H1666 = assay: MTS assay, NCI-H1666
NCI-H1819 = assay: MTS assay, NCI-H1819

CNC(=O)c1ccccc1Nc1nc(Nc2ccc(N3CCOCC3)cc2OC)ncc1Cl [TAE226]
IC50 (HCC827; HCC827, EGFR Exon 19 del (E746-A750), MTS, TAE226 48 hours, gefitinib 72 hours, read-out: IC50 (μM) (mean ± SD)): 0.086 ± 0.01 µM | IC50 (HCC827; HCC827, independent MTS assays, read-out: each IC50): 0.061 µM and 0.095 µM and 0.09 µM and 0.1 µM | IC50 ([1]; HEK293T-L858R, independent MTS assays, read-out: each IC50): 0.43 µM | IC50 ([1]; Transfected HEK-293T, mutant EGFR (L858R), MTS, TAE226 48 hours, gefitinib 72 hours, read-out: IC50 (μM) (mean ± SD)): 0.41 ± 0.06 µM | phosphorylation of IGF-IR after serum-starvation (phospho-IGF-IR): completely inhibited | IC50 (Insulin-R): 44 nM | IC50 (HER2): 950 nM | IC50 (Flt-4): 220 nM | IC50 (FGFR-3 (K650E)): […] | IC50 (c-Abl): 5900 nM | IC50 (PDGFR): 2600 nM | IC50 (Ret (M918T)): […] | IC50 (JAK-2): 840 nM | IC50 (BRAF (V600E)): 1400 nM | IC50 (PDK1): > 10000 nM | IC50 (PKA): > 10000 nM | IC50 (PKB/AKT): > 10000 nM | IC50 (PC-9; read-out: IC50 (μM) (mean ± SD), PC-9, EGFR Exon 19 del (E746-A750), MTS, TAE226 48 hours, gefitinib 72 hours): 0.16 ± 0.01 µM | IC50 (PC-9; read-out: each IC50, PC-9, independent MTS assays): […] | IC50 (PC-9; read-out: mean IC50, PC-9, mean of independent MTS assays): 0.16 µM | IC50 (A549; read-out: IC50 (μM) (mean ± SD), A549, KRAS Codon 12 (G12S), MTS, TAE226 48 hours, gefitinib 72 hours): 1.4 ± 0.05 µM | IC50 (A549; read-out: each IC50, A549, independent MTS assays): 1.4 µM and 1.3 µM | IC50 (A549; read-out: mean IC50, A549, mean of independent MTS assays): 1.4 µM | IC50 (SK-BR-3; read-out: IC50 (μM) (mean ± SD), SK-BR-3 (breast cancer), HER2 amplification, MTS, TAE226 48 hours): 35.1 ± 0.53 µM | IC50 (SK-BR-3; read-out: each IC50, SK-BR-3, independent MTS assays): 34.6 µM and 35.6 µM | IC50 (NCI-H3255; read-out: IC50 (μM) (mean ± SD), NCI-H3255, EGFR Exon 21 (L858R), MTS, TAE226 48 hours, gefitinib 72 hours): 0.12 ± 0.005 µM | IC50 (NCI-H3255; read-out: each IC50, NCI-H3255, independent MTS assays): 0.12 µM and 0.13 µM | IC50 (NCI-H3255; read-out: mean IC50, NCI-H3255, mean of independent MTS assays): 0.12 µM | IC50 (NCI-H1975; read-out: IC50 (μM) (mean ± SD), NCI-H1975, EGFR Exon 21 (L858R) + T790M, MTS, TAE226 48 hours, gefitinib 72 hours): 0.17 ± 0.02 µM | IC50 (NCI-H1975; read-out: each IC50, NCI-H1975, independent MTS assays): […] | IC50 (NCI-H2228; read-out: IC50 (μM) (mean ± SD), NCI-H2228, EML4-ALK fusion Variant 3, MTS, TAE226 48 hours, gefitinib 72 hours): 0.28 ± 0.001 µM | IC50 (NCI-H2228; read-out: each IC50, NCI-H2228, independent MTS assays): 0.28 µM | IC50 (NCI-H2228; read-out: mean IC50, NCI-H2228, mean of independent MTS assays): 0.28 µM | IC50 (NCI-H1666; read-out: IC50 (μM) (mean ± SD), NCI-H1666, BRAF Exon 11 (G466V), MTS, TAE226 48 hours, gefitinib 72 hours): 0.42 ± 0.08 µM | IC50 (NCI-H1666; read-out: each IC50, NCI-H1666, independent MTS assays): 0.5 µM and 0.34 µM | IC50 (NCI-H1819; read-out: IC50 (μM) (mean ± SD), NCI-H1819, HER2 amplification, MTS, TAE226 48 hours, gefitinib 72 hours): 3.8 ± 0.4 µM | IC50 (NCI-H1819; read-out: each IC50, NCI-H1819, independent MTS assays): 4 µM and 3.2 µM and 4.1 µM
